Measurements published in patent US8362011B2, “Tricyclic triazolic compounds” (Laboratories del Dr. Esteve, S.A., priority 2007, dated 2013).

Molecular target: T1, σ1-receptor (Cavia porcellus, UniProt Q60492)
T1 construct: Guinea pig brains were homogenized in 10 vols; (w/v) of Tris-HCl 50 mM 0.32 M sucrose; from tissue; host or cells: guinea pig brain membranes
Experiment: σ1-receptor binding assay, [3H]-(+)-pentazocine, guinea pig brain membranes
Details: [3H]-(+)-pentazocine 5.0 nM
Procedure: Brain membrane preparation and binding assays for the σ1-receptor were performed as described (DeHaven-Hudkins, D. L., L.C. Fleissner, and F. Y. Ford-Rice, 1992, Characterization of the binding of [^3H](+)pentazocine to σ recognition sites in guinea pig brain, Eur. J. Pharmacol. 227, 371-378) with some modifications. Guinea pig brains were homogenized in 10 vols. (w/v) of Tris-HCl 50 mM 0.32 M sucrose, pH 7.4, with a Kinematica Polytron PT 3000 at 15000 r.p.m. for 30 s. The homogenate was centrifuged at 1000 g for 10 min at 4° C. and the supernatants collected and centrifuged again at 48000 g for 15 min at 4° C. The pellet was resuspended in 10 volumes of Tris-HCl buffer (50 mM, pH 7.4), incubated at 37° C. for 30 min, and centrifuged at 48000 g for 20 min at 4° C. Following this, the pellet was re-suspended in fresh Tris-HCl buffer (50 mM, pH 7.4) and stored on ice until use.
The radioligand used was [^3H]-(+)-pentazocine at 5.0 nM and the final volume was 200 μl. The incubation was initiated with the addition of 100 μA of membrane at a final tissue concentration of approximately 5 mg tissue net weight/mL and the incubation time was 150 m. at 37° C. After incubation, the membranes were collected onto pretreated glass fiber filterplate (MultiScreen-FC, Millipore), with polyethylenimine 0.1%. The filters were washed two times with 200 μA of washing buffer (50 mM Tris Cl, pH=7.4) and then 25 μA of Ecoscint H liquid scintillation cocktail were added. Microplates were allowed to set for several hours and then quantified by liquid scintillation spectrophotometry (1450 Microbeta, Wallac). Nonspecific binding was determined with 1 μM haloperidol.

T1 sequence (Q60492 whole entry): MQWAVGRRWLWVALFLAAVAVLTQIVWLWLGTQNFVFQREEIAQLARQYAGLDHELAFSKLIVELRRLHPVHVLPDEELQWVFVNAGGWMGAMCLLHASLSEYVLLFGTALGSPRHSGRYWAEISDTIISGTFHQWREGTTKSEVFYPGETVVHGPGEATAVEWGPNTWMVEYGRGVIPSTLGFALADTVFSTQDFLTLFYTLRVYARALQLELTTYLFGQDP

| Compound | Ki [nM] |
| --- | --- |
| COc1ccc(CN2C[C@@H]3[C@@H](C2)OCc2c(C)nnn23)cc1 (relative stereo) [Example 2, (5a,8a-trans)-7-(4-methoxybenzyl)-3-methyl-4,5a,6,7,8,8a-hexahydro pyrrolo[3,4-b][1,2,3]triazolo[1,5-d][1,4]oxazine] | > 1000 |

Tested on: not given
Experiment: not given
Details: not given

| Compound | melting point |
| --- | --- |
| O=C(c1cccs1)N1CC2OCc3cnnn3[C@@H]2C1 (stereo partly drawn) [Example 26, ((5a,8a-trans)-5a,6,8,8a-tetrahydropyrrolo[3,4-b][1,2,3]triazolo[1,5-d][1,4]oxazin-7(4H)-yl)(thiophen-2-yl)methanone] | 186 to 188 °C |
| CC(C)(C)OC(=O)N1CC2OCc3c(-c4ccc(C(F)(F)F)cc4)nnn3[C@H]2C1 (stereo partly drawn) [Example 57, (5aS,8aS)-tert-butyl-3-(4-(trifluoromethyl)phenyl)-5a,6,8,8a-tetrahydropyrrolo[3,4-b][1,2,3]triazolo[1,5-c][1,4]oxazine-7(4H)-carboxylate] | 238 to 239 °C |
| c1ccc(-c2nnn3c2COC2CN(c4ccccc4)C[C@H]23)cc1 (stereo partly drawn) [Example 45, (5a,8a-trans)-3,7-diphenyl-4,5a,6,7,8,8a-hexahydropyrrolo[3,4-b][1,2,3] triazolo[1,5-d][1,4]oxazine] | 256 to 257 °C |
| O=C(c1ccccc1F)N1CC2OCc3cnnn3[C@@H]2C1 (stereo partly drawn) [Example 21, (2-fluorophenyl)((5a,8a-trans)-5a,6,8,8a-tetrahydropyrrolo[3,4-b][1,2,3]triazolo[1,5-d][1,4]oxazin-7(4H)-yl)methanone] | 188 to 190 °C |
| c1cnc(N2CC3OCc4cnnn4[C@@H]3C2)nc1 (stereo partly drawn) [Example 35, (5a,8a-trans)-7-(pyrimidin-2-yl)-4,5a,6,7,8,8a-hexahydropyrrolo[3,4-b][1,2,3]triazolo[1,5-d][1,4]oxazine] | 256 to 257 °C |
| c1nnn2c1COC1CNC[C@H]12 (some centres unmarked) | 217 °C (dec.) |
| Cc1nnn2c1CO[C@H]1CN(C(=O)OC(C)(C)C)C[C@@H]12 [Example 54, (5aS,8aS)-tert-butyl 3-methyl-5a,6,8,8a-tetrahydropyrrolo[3,4-b][1,2,3] triazolo[1,5-d][1,4]oxazine-7(4H)-carboxylate] | 195 to 196 °C |
| O=C(c1ccccc1)N1CC2OCc3c(-c4ccccc4)nnn3[C@@H]2C1 (stereo partly drawn) [Example 27, phenyl((5a,8a-trans)-3-phenyl-5a,6,8,8a-tetrahydropyrrolo[3,4-b][1,2,3]triazolo[1,5-d][1,4]oxazin-7(4H)-yl)methanone] | 237 to 239 °C |
| CS(=O)(=O)N1CC2OCc3c(-c4ccccc4)nnn3[C@@H]2C1 (some centres unmarked) [Example 19, (5a,8a)-7-(methylsulfonyl)-3-phenyl-4,5a,6,7,8,8a-hexahydropyrrolo[3,4-b][1,2,3]triazolo[1,5-d][1,4]oxazine] | 293 to 295 °C |
| CC(C)(C)OC(=O)N1C[C@@H]2OCc3c(-c4cccc(F)c4)nnn3[C@H]2C1 [Example 56, (5aS,8aS)-tert-butyl 3-(3-fluorophenyl)-5a,6,8,8a-tetrahydropyrrolo[3,4-b][1,2,3]triazolo[1,5-d][1,4]oxazine-7(4H)-carboxylate] | 249 to 250 °C |
| CC(C)(C)OC(=O)N1C[C@@H]2OCc3c(-c4ccccc4)nnn3[C@H]2C1 [Example 55, (5aS,8aS)-tert-butyl 3-phenyl-5a,6,8,8a-tetrahydropyrrolo[3,4-b][1,2,3] triazolo[1,5-d][1,4]oxazine-7(4H)-carboxylate] | 236 to 237 °C |
| O=S(=O)(c1ccccc1F)N1CC2OCc3cnnn3[C@@H]2C1 (stereo partly drawn) [Example 17, (5a,8a-trans)-7-(2-fluorophenylsulfonyl)-4,5a,6,7,8,8a-hexahydro pyrrolo[3,4-b][1,2,3]triazolo[1,5-d][1,4]oxazine] | 178 to 180 °C |
| c1ccc(N2CC3OCc4cnnn4[C@@H]3C2)cc1 (stereo partly drawn) [Example 42, (5a,8a-trans)-7-phenyl-4,5a,6,7,8,8a-hexahydropyrrolo[3,4-b][1,2,3] triazolo[1,5-d][1,4]oxazine] | 222 to 223 °C |
| O=C(c1cccs1)N1CC2OCc3c(-c4ccccc4)nnn3[C@@H]2C1 (stereo partly drawn) [Example 30, ((5a,8a-trans)-3-phenyl-5a,6,8,8a-tetrahydropyrrolo[3,4-b][1,2,3]triazolo[1,5-d][1,4]oxazin-7(4H)-yl)(thiophen-2-yl)methanone] | 248 to 249 °C |
| O=C(OCc1ccccc1)N1CC2OCc3c(-c4ccccc4)nnn3[C@@H]2C1 (stereo partly drawn) [Example 34, (5a,8a-trans)-benzyl3-phenyl-5a,6,8,8a-tetrahydropyrrolo[3,4-b][1,2,3] triazolo[1,5-d][1,4]oxazine-7(4H)-carboxylate] | 209 to 212 °C |
| O=C(Nc1ccccc1)N1CC2OCc3cnnn3[C@@H]2C1 (stereo partly drawn) [Example 32, (5a,8a-trans)-N-phenyl-5a,6,8,8a-tetrahydropyrrolo[3,4-b][1,2,3] triazolo[1,5-d][1,4]oxazine-7(4H)-carboxamide] | 227 to 228 °C |

| Compound | melting point |
| --- | --- |
| CCN1CC2OCc3cnnn3[C@@H]2C1 (some centres unmarked) | 59 to 60 °C |
| COc1ccc(CN2CC3OCc4cnnn4[C@@H]3C2)cc1 (stereo partly drawn) [Example 1, (5a,8a-trans)-7-(4-methoxybenzyl)-4,5a,6,7,8,8a-hexahydropyrrolo[3,4-b][1,2,3]triazolo[1,5-d][1,4]oxazine] | 150 to 151 °C |
| CS(=O)(=O)N1CC2OCc3cnnn3[C@@H]2C1 (stereo partly drawn) [Example 14, (5a,8a-trans)-7-(methylsulfonyl)-4,5a,6,7,8,8a-hexahydropyrrolo[3,4-b][1,2,3]triazolo[1,5-d][1,4]oxazine] | 204 to 206 °C |
| CCCCNC(=O)N1CC2OCc3cnnn3[C@@H]2C1 (stereo partly drawn) [Example 31, (5a,8a-trans)-N-butyl-5a,6,8,8a-tetrahydropyrrolo[3,4-b][1,2,3]triazolo[1,5-d][1,4]oxazine-7(4H)-carboxamide] | 194 to 195 °C |
| O=S(=O)(c1ccc(F)cc1)N1CC2OCc3c(-c4ccccc4)nnn3[C@@H]2C1 (stereo partly drawn) [Example 20, (5a,8a-trans)-7-(4-fluorophenylsulfonyl)-3-phenyl-4,5a,6,7,8,8a-hexa hydropyrrolo[3,4-b][1,2,3]triazolo[1,5-d][1,4]oxazine] | 287 to 288 °C |
| O=S(=O)(c1ccccc1)N1CC2OCc3cnnn3[C@@H]2C1 (stereo partly drawn) [Example 16, (5a,8a-trans)-7-(phenylsulfonyl)-4,5a,6,7,8,8a-hexahydropyrrolo[3,4-b][1,2,3]triazolo[1,5-d][1,4]oxazine] | 168 to 170 °C |
| CC(C)(C)OC(=O)N1C[C@@H]2OCc3cnnn3[C@H]2C1 [Example 53, (5aS,8aS)-tert-butyl 5a,6,8,8a-tetrahydropyrrolo[3,4-b][1,2,3]triazolo[1,5-d][1,4]oxazine-7(4H)-carboxylate] | 155 to 157 °C |
| Clc1ccc(N2CC3OCc4cnnn4[C@@H]3C2)cc1 (stereo partly drawn) [Example 43, (5a,8a-trans)-7-(4-chlorophenyl)-4,5a,6,7,8,8a-hexahydropyrrolo[3,4-b][1,2,3]triazolo[1,5-d][1,4]oxazine] | 238 °C (dec.) |
| O=C(Nc1ccccc1)N1CC2OCc3c(-c4ccccc4)nnn3[C@@H]2C1 (stereo partly drawn) [Example 33, (5a,8a-trans)-N,3-diphenyl-5a,6,8,8a-tetrahydropyrrolo[3,4-b][1,2,3] triazolo[1,5-d][1,4]oxazine-7(4H)-carboxamide] | 275 to 277 °C |
| c1ccc(-c2nnn3c2COC2CN(c4ncccn4)C[C@H]23)cc1 (stereo partly drawn) [Example 40, (5a,8a-trans)-3-phenyl-7-(pyrimidin-2-yl)-4,5a,6,7,8,8a-hexahydro pyrrolo[3,4-b][1,2,3]triazolo[1,5-d][1,4]oxazine] | 256 to 257 °C |
| O=C(CCc1ccccc1)N1CC2OCc3cnnn3[C@@H]2C1 (stereo partly drawn) [Example 24, 3-phenyl-1-((5a,8a-trans)-5a,6,8,8a-tetrahydropyrrolo[3,4-b][1,2,3]triazolo[1,5-d][1,4]oxazin-7(4H)-yl)propan-1-one] | 134 to 135 °C |
| O=S(=O)(c1ccc(F)cc1)N1CC2OCc3cnnn3[C@@H]2C1 (stereo partly drawn) [Example 18, (5a,8a-trans)-7-(4-fluorophenylsulfonyl)-4,5a,6,7,8,8a-hexahydro pyrrolo[3,4-b][1,2,3]triazolo[1,5-d][1,4]oxazine] | 208 to 209 °C |
| O=S(=O)(c1ccc(Br)cc1)N1CC2OCc3cnnn3[C@@H]2C1 (stereo partly drawn) [Example 15, (5a,8a-trans)-7-(4-bromophenylsulfonyl)-4,5a,6,7,8,8a-hexahydro pyrrolo[3,4-b][1,2,3]triazolo[1,5-d][1,4]oxazine] | 220 to 221 °C |
| O=C(c1ccccc1)N1CC2OCc3cnnn3[C@@H]2C1 (stereo partly drawn) [Example 22, phenyl((5a,8a-trans)-5a,6,8,8a-tetrahydropyrrolo[3,4-b][1,2,3]triazolo[1,5-d][1,4]oxazin-7(4H)-yl)methanone] | 173 to 174 °C |
| c1ccc(N2CC3OCc4cnnn4[C@@H]3C2)nc1 (stereo partly drawn) [Example 44, (5a,8a-trans)-7-(pyridin-2-yl)-4,5a,6,7,8,8a-hexahydropyrrolo[3,4-b][1,2,3]triazolo[1,5-d][1,4]oxazine] | 216 °C (dec.) |
